Earlier results as cited in patent publication US20230064685A1, “METHODS AND COMPOSITIONS TO INHIBIT SYMPTOMS ASSOCIATED WITH VEISALGIA” (SEN-JAM PHARMACEUTICAL LLC, priority 2015, published 2023).

Columns and labels:
[1] = test system: hangover symptom of thirst; conditions: each drug alone; general statement, no test described
[2] = test system: alcohol hangover; conditions: randomized controlled trials reviewed by Pittler et al. 2005

| Structure (SMILES) | effect or side effect of reducing thirst [1] | intergroup differences for overall symptom scores and individual symptoms [2] |
| --- | --- | --- |
| CC(C)(C(=O)O)c1ccc(C(O)CCCN2CCC(C(O)(c3ccccc3)c3ccccc3)CC2)cc1 (racemic) [fexofenadine, (±)-4-[1 hydroxy-4-[4-(hydroxydiphenylmethyl)-1-piperidinyl]-butyl]-α, α-dimethyl benzeneacetic acid] | neither naproxen nor fexofenadine, alone, has shown any effect or side effect of reducing thirst |  |
| COc1ccc2cc(C(C)C(=O)O)ccc2c1 (stereo not drawn) [naproxen, 6-methoxy-α-methyl-2-naphthaleneacetic acid] | neither naproxen nor fexofenadine, alone, has shown any effect or side effect of reducing thirst |  |
| Cc1c(Cl)cccc1Nc1ccccc1C(=O)O [tolfenamic acid] |  | Significant intergroup differences |
| CCCCC/C=C\C/C=C\C/C=C\CCCCC(=O)O [γ linolenic acid from B officinalis, γ linolenic acid] |  | Significant intergroup differences |
